Data taken from patent publication US12281149B2, “Modulators of G-protein coupled receptors” (priority 2021, dated 2025).
*1 amine or outer side, *2 acyl side, *3 side chain or, on linkers, in order; H or OH if unused. Where a SMILES comes first, the peptide text is derived from it. Side-chain parts run from the residue outwards. [ ]: non-standard residue; d: D form. The star is where a group is joined. C20 diacid = O=C(O)CCCCCCCCCCCCCCCCCCC(=O)*; X52 = CC(C)(C(=O)*)c1cc(F)cc(OC(F)(F)F)c1; γGlu = O=C(O)[C@H](CCC(=O)[*:2])N[*:1]; X19 = O=C1COc2ccccc2N1CCNCCC(=O)*; X79 = O=C1CC(C(=O)*)(c2ccccn2)CN1; X15 = O=C(C1(c2cccc(F)c2)CC1)*; X23 = CC(C)(C(=O)*)c1ccncc1; AEEA = NCCOCCOCC(=O)O; Aib = CC(C)(N)C(=O)O; βAla = NCCC(=O)O

Legend:
Assay type in all cases: cell-based
[1] = target: T1, GLP-1 receptor (Homo sapiens, UniProt P43220); test: HitHunter cAMP assay, GLP-1 receptor; conditions: for EC50: CHO cells stably expressing human GLP-1 receptor, cAMP accumulation, 30 min, read-out: EC50 GLP-1R; for Emax: CHO cells, cAMP, normalized to maximum signal from GLP-1 (high) and DMSO (low), read-out: Emax GLP-1R
T1 sequence (P43220 24-463): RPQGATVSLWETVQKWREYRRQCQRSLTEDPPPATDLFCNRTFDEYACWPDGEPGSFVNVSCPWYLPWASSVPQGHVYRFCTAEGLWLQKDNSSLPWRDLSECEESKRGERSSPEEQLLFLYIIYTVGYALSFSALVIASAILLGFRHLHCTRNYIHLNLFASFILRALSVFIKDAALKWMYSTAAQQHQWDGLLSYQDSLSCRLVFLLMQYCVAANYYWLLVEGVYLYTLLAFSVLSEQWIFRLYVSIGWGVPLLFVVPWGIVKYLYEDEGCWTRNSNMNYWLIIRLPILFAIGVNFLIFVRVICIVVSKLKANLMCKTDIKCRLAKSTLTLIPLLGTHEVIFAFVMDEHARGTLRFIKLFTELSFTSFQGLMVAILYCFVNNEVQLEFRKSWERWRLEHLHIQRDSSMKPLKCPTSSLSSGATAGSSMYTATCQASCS

[2] = target: T2, GIP receptor (Homo sapiens, UniProt P48546); test: PathHunter β-arrestin assay, GIP receptor; parameters: host or cells: PathHunter CHO-K1 GIPR β-Arrestin Cell Line; conditions: β-arrestin-2 recruitment, PathHunter CHO-K1 GIPR β-Arrestin Cell Line, 90 min at 37° C.; normalized to GIP; read-out: GIPR β Arrestin EC50
T2 sequence (P48546 22-466): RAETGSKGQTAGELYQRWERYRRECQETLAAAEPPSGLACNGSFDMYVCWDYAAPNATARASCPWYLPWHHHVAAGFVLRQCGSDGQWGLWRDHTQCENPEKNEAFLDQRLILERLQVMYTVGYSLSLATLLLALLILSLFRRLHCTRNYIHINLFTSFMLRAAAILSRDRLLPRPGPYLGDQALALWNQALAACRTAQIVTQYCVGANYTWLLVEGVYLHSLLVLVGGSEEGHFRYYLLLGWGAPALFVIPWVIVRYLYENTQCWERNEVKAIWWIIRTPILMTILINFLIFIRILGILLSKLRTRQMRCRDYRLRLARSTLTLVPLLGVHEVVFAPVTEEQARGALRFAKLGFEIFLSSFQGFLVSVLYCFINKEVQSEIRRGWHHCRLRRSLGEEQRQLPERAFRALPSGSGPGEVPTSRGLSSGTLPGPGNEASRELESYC

[3] = target: T2, GIP receptor; test: HitHunter cAMP assay, GIP receptor; conditions: for EC50: CHO cells stably expressing GIP receptor, cAMP accumulation, 30 min, read-out: EC50 GIP-1R; for Emax: CHO cells, cAMP, normalized to maximum signal from GIP (high) and DMSO (low), read-out: Emax GIP-1R
[4] = target: T1, GLP-1 receptor; test: PathHunter β-arrestin assay, GLP-1 receptor; parameters: host or cells: PathHunter CHO-K1 GLP1R β-Arrestin Cell Line; conditions: β-arrestin-2 recruitment, PathHunter CHO-K1 GLP1R β-Arrestin Cell Line, 90 min at 37° C.; normalized to GLP-1; read-out: GLP-1R β Arrestin EC50
Protocol: β-arrestin-2 recruitment for GLP-1 receptor or GIP receptor was measured using the DiscoverX PathHunter Detection Kit and PathHunter® CHO-K1 GLPIR β-Arrestin Cell Line or PathHunter® CHO-K1 GIPR β-Arrestin Cell Line, respectively). Briefly, cells were grown in Ham's F12 Nutrient Mix with 10% FBS and lifted with Cell dissociation buffer, Enzyme free, PBS based (ThermoFisher). Harvested cells were pelleted and resuspended in Assay Complete Cell Plating Reagent 2 and 5000 cells per well were plated in tissue culture treated 384-well small volume white assay plates. Plates were then incubated at 37° C. and 5% CO2 overnight. The media was then replaced with fresh Assay Complete Cell Plating Reagent 2. Cells were then treated with 10 nl compound in DMSO using an ECHO 550 acoustic dispenser (Labcyte) in a 20-point dose response format in duplicate for 90 min at 37° C. The assay was then completed according to the manufacturer's instructions. Luminescence was measured using a Perkin Elmer Envision plate reader. Raw data was normalized to the maximum signal from GLP-1 or GIP (high) and DMSO (low). Dose response curves were analyzed using GraphPad Prism 9.0.

Row | SMILES | EC50 [1] [nM] | Emax [1] [%] | EC50 [2] [nM] | EC50 [3] [nM] | Emax [3] [%] | EC50 [4] [nM]
1 | CC[C@H](C)[C@H](NC(=O)[C@H](CC(C)C)NC(=O)[C@H](Cc1c[nH]c2ccccc12)NC(=O)[C@H](CCC(N)=O)NC(=O)[C@@H](NC(=O)[C@H](Cc1ccccc1)NC(=O)[C@H](C)NC(=O)[C@H](CCCCNC(=O)COCCOCCNC(=O)COCCOCCNC(=O)CC[C@H](NC(=O)CCCCCCCCCCCCCCCCCCC(=O)O)C(=O)O)NC(=O)[C@H](CCC(N)=O)NC(=O)[C@H](C)NC(=O)[C@@H](NC(=O)[C@H](CCCCN)NC(=O)[C@H](CC(=O)O)NC(=O)[C@H](CC(C)C)NC(=O)C(C)(C)NC(=O)[C@@H](NC(=O)[C@H](CO)NC(=O)[C@H](Cc1ccc(O)cc1)NC(=O)[C@H](CC(=O)O)NC(=O)[C@H](CO)NC(=O)[C@@H](NC(=O)[C@H](Cc1ccccc1)NC(=O)[C@@H](NC(=O)CNC(=O)[C@H](CCC(=O)O)NC(=O)CCNC(=O)C1(c2ccccn2)CNC(=O)C1)[C@@H](C)O)[C@@H](C)O)[C@@H](C)CC)[C@@H](C)CC)C(C)C)C(=O)N[C@@H](C)C(=O)NCC(=O)NCC(=O)N1CCC[C@H]1C(=O)N[C@@H](CO)C(=O)N[C@@H](CO)C(=O)NCC(=O)N[C@@H](C)C(=O)N1CCC[C@H]1C(=O)N1CCC[C@H]1C(=O)N1CCC[C@H]1C(=O)N[C@@H](CO)C(N)=O (stereo partly drawn) [Compound 151] ({X79-βAla}-EGTFTSDYSI[Aib]LDKIAQK([AEEA-AEEA-γGlu-C20 diacid])AFVQWLIAGGPSSGAPPPS-NH2) | 1 to 10 | 101 | > 1000 | 1 to 10 | 105 | > 1000
2 | CC[C@H](C)[C@H](NC(=O)[C@H](CC(C)C)NC(=O)[C@H](Cc1c[nH]c2ccccc12)NC(=O)[C@H](CCC(N)=O)NC(=O)[C@@H](NC(=O)[C@H](Cc1ccccc1)NC(=O)[C@H](C)NC(=O)[C@H](CCCCNC(=O)COCCOCCNC(=O)COCCOCCNC(=O)CC[C@H](NC(=O)CCCCCCCCCCCCCCCCCCC(=O)O)C(=O)O)NC(=O)[C@H](CCC(N)=O)NC(=O)[C@H](C)NC(=O)[C@@H](NC(=O)[C@H](CCCCN)NC(=O)[C@H](CC(=O)O)NC(=O)[C@H](CC(C)C)NC(=O)C(C)(C)NC(=O)[C@@H](NC(=O)[C@H](CO)NC(=O)[C@H](Cc1ccc(O)cc1)NC(=O)[C@H](CC(=O)O)NC(=O)[C@H](CO)NC(=O)[C@@H](NC(=O)[C@H](Cc1ccccc1)NC(=O)[C@@H](NC(=O)CNC(=O)[C@H](CCC(=O)O)NC(=O)CCNCCN1C(=O)COc2ccccc21)[C@@H](C)O)[C@@H](C)O)[C@@H](C)CC)[C@@H](C)CC)C(C)C)C(=O)N[C@@H](C)C(=O)NCC(=O)NCC(=O)N1CCC[C@H]1C(=O)N[C@@H](CO)C(=O)N[C@@H](CO)C(=O)NCC(=O)N[C@@H](C)C(=O)N1CCC[C@H]1C(=O)N1CCC[C@H]1C(=O)N1CCC[C@H]1C(=O)N[C@@H](CO)C(N)=O [Compound 276] (X19-EGTFTSDYSI[Aib]LDKIAQK([AEEA-AEEA-γGlu-C20 diacid])AFVQWLIAGGPSSGAPPPS-NH2) | 10 to 100 | 95 | > 1000 | 100 to 1000 | 35 | > 1000
3 | CC[C@H](C)[C@H](NC(=O)[C@H](CC(C)C)NC(=O)[C@H](Cc1c[nH]c2ccccc12)NC(=O)[C@H](CCC(N)=O)NC(=O)[C@@H](NC(=O)[C@H](Cc1ccccc1)NC(=O)[C@H](C)NC(=O)[C@H](CCCCNC(=O)COCCOCCNC(=O)COCCOCCNC(=O)CC[C@H](NC(=O)CCCCCCCCCCCCCCCCCCC(=O)O)C(=O)O)NC(=O)[C@H](CCC(N)=O)NC(=O)[C@H](C)NC(=O)[C@@H](NC(=O)[C@H](CCCCN)NC(=O)[C@H](CC(=O)O)NC(=O)[C@H](CC(C)C)NC(=O)C(C)(C)NC(=O)[C@@H](NC(=O)[C@H](CO)NC(=O)[C@H](Cc1ccc(O)cc1)NC(=O)[C@H](CC(=O)O)NC(=O)[C@H](CO)NC(=O)[C@@H](NC(=O)[C@H](Cc1ccccc1)NC(=O)[C@@H](NC(=O)CNC(=O)[C@H](CCC(=O)O)NC(=O)CCNC(=O)C(C)(C)c1cc(F)cc(OC(F)(F)F)c1)[C@@H](C)O)[C@@H](C)O)[C@@H](C)CC)[C@@H](C)CC)C(C)C)C(=O)N[C@@H](C)C(=O)NCC(=O)NCC(=O)N1CCC[C@H]1C(=O)N[C@@H](CO)C(=O)N[C@@H](CO)C(=O)NCC(=O)N[C@@H](C)C(=O)N1CCC[C@H]1C(=O)N1CCC[C@H]1C(=O)N1CCC[C@H]1C(=O)N[C@@H](CO)C(N)=O [Compound 112] ({X52-βAla}-EGTFTSDYSI[Aib]LDKIAQK([AEEA-AEEA-γGlu-C20 diacid])AFVQWLIAGGPSSGAPPPS-NH2) | 1 to 10 | 115 | > 1000 | 100 to 1000 | 99 | > 1000
4 | CC[C@H](C)[C@H](NC(=O)[C@H](CC(C)C)NC(=O)[C@H](Cc1c[nH]c2ccccc12)NC(=O)[C@H](CCC(N)=O)NC(=O)[C@@H](NC(=O)[C@H](Cc1ccccc1)NC(=O)[C@H](C)NC(=O)[C@H](CCCCNC(=O)COCCOCCNC(=O)COCCOCCNC(=O)CC[C@H](NC(=O)CCCCCCCCCCCCCCCCCCC(=O)O)C(=O)O)NC(=O)[C@H](CCC(N)=O)NC(=O)[C@H](C)NC(=O)[C@@H](NC(=O)[C@H](CCCCN)NC(=O)[C@H](CC(=O)O)NC(=O)[C@H](CC(C)C)NC(=O)C(C)(C)NC(=O)[C@@H](NC(=O)[C@H](CO)NC(=O)[C@H](Cc1ccc(O)cc1)NC(=O)[C@H](CC(=O)O)NC(=O)[C@H](CO)NC(=O)[C@@H](NC(=O)[C@H](Cc1ccccc1)NC(=O)[C@@H](NC(=O)CNC(=O)[C@H](CCC(=O)O)NC(=O)CCNC(=O)C(C)(C)c1ccncc1)[C@@H](C)O)[C@@H](C)O)[C@@H](C)CC)[C@@H](C)CC)C(C)C)C(=O)N[C@@H](C)C(=O)NCC(=O)NCC(=O)N1CCC[C@H]1C(=O)N[C@@H](CO)C(=O)N[C@@H](CO)C(=O)NCC(=O)N[C@@H](C)C(=O)N1CCC[C@H]1C(=O)N1CCC[C@H]1C(=O)N1CCC[C@H]1C(=O)N[C@@H](CO)C(N)=O [Compound 238] ({X23-βAla}-EGTFTSDYSI[Aib]LDKIAQK([AEEA-AEEA-γGlu-C20 diacid])AFVQWLIAGGPSSGAPPPS-NH2) | 0.1 to 1 | 91 | > 1000 | 10 to 100 | 100 | > 1000
5 | CC[C@H](C)[C@H](NC(=O)[C@H](CC(C)C)NC(=O)[C@H](Cc1c[nH]c2ccccc12)NC(=O)[C@H](CCC(N)=O)NC(=O)[C@@H](NC(=O)[C@H](Cc1ccccc1)NC(=O)[C@H](C)NC(=O)[C@H](CCCCNC(=O)COCCOCCNC(=O)COCCOCCNC(=O)CC[C@H](NC(=O)CCCCCCCCCCCCCCCCCCC(=O)O)C(=O)O)NC(=O)[C@H](CCC(N)=O)NC(=O)[C@H](C)NC(=O)[C@@H](NC(=O)[C@H](CCCCN)NC(=O)[C@H](CC(=O)O)NC(=O)[C@H](CC(C)C)NC(=O)C(C)(C)NC(=O)[C@@H](NC(=O)[C@H](CO)NC(=O)[C@H](Cc1ccc(O)cc1)NC(=O)[C@H](CC(=O)O)NC(=O)[C@H](CO)NC(=O)[C@@H](NC(=O)[C@H](Cc1ccccc1)NC(=O)[C@@H](NC(=O)CNC(=O)[C@H](CCC(=O)O)NC(=O)CCNC(=O)C1(c2cccc(F)c2)CC1)[C@@H](C)O)[C@@H](C)O)[C@@H](C)CC)[C@@H](C)CC)C(C)C)C(=O)N[C@@H](C)C(=O)NCC(=O)NCC(=O)N1CCC[C@H]1C(=O)N[C@@H](CO)C(=O)N[C@@H](CO)C(=O)NCC(=O)N[C@@H](C)C(=O)N1CCC[C@H]1C(=O)N1CCC[C@H]1C(=O)N1CCC[C@H]1C(=O)N[C@@H](CO)C(N)=O [Compound 206] ({X15-βAla}-EGTFTSDYSI[Aib]LDKIAQK([AEEA-AEEA-γGlu-C20 diacid])AFVQWLIAGGPSSGAPPPS-NH2) | 1 to 10 | 98 | > 1000 | 10 to 100 | 106 | > 1000
